Assay [1] relates to MRSA ON184. Nature of the assay: MBC/MFC determination. The settings on record: alone. In kind it is cell-based, Staphylococcus aureus. Here is the method: (§1) An assay was made using a minimum inhibitory concentration (MIC) and minimum bactericidal concentration (MBC) and minimum fungicidal concentration (MFC) determination. The MIC was determined by the micro broth dilution method in 96-well plates. Serial two-fold dilutions of tetrasodium EDTA (from 2% to 0.015%), ethanol (from 50% to 0.1%) and chlorhexidine HCl (from 100 µg/mL to 0.025 µg/mL) were prepared in MH broth with a final volume of 90 µL per well. A 10 µL containing 1 × 10^5 bacterial cells or 2 × 10^3 fungal cells were added to each well. The inoculated plates were covered with a lid, sealed with Parafilm, and incubated for 24 h at 37° C. with slight rocking on a tilting platform shaker. After incubation, the optical density at 600 nm (OD 600 ) of the cultures in each well was measured using an xMark™ Microplate Absorbance Spectrophotometer (Bio-Rad). […] MBCs and MFCs were determined by transferring 100 µL from each well with no apparent growth onto appropriate agar plates, followed by incubation for 24 h at 37° C.

Assay [2] relates to Candida albicans SK4b. Nature of the assay: Checkerboard titration, FICI. The settings on record: C. albicans SK4b. It counts as cell-based. Here is the method: (§2) A fourth composition and solution included tetrasodium EDTA with ethanol or chlorhexidine HCl. This fourth composition and solution were created using checkerboard titration methods using micro broth dilution in 96-well microtiter plates. The concentrations of antimicrobials used were based on previously determined MIC values. Briefly, 200 µL of two-fold dilutions of tetrasodium EDTA and ethanol or chlorhexidine HCl were prepared in MH or MH II broth with standardized cell suspension. […] Microtiter plates were incubated at 37° C. for 24 h, and the results were analyzed. Each test was performed in duplicate and included a growth control without adding any antimicrobials.

For assay [3], the system named is Proteus mirabilis ON153. The assay can be described thus: Checkerboard titration, FICI. In kind it is cell-based. The settings on record: P. mirabilis ON153. Here is the method: as §2
Assay [4] relates to Pseudomonas aeruginosa SK1. The assay can be described thus: Checkerboard titration, FICI. In kind it is cell-based. As to conditions: P. aeruginosa SK1. Here is the method:
as §2

Assay [5] concerns Serratia marcescens SK2. The assay can be described thus: Checkerboard titration, FICI. In kind it is cell-based. The settings on record: S. marcescens SK2. The method, then: as §2
Assay [6] deals with Staphylococcus aureus ON89. Nature of the assay: Checkerboard titration, FICI. In kind it is cell-based. As to conditions: S. aureus ON89. Here is the method:
as §2

Assay [7] concerns Staphylococcus epidermidis ON170. The assay can be described thus: Checkerboard titration, FICI. In kind it is cell-based. As to conditions: S. epidermidis ON170. The method, then:
as §2

The test system of assay [8] is Stenotrophomonas maltophilia ON17. Nature of the assay: Checkerboard titration, FICI. It counts as cell-based. The settings on record: S. maltophilia ON17. The method, then: as §2
The subject of assay [9] is S. epidermidis SK9. Nature of the assay: Checkerboard titration, FMCI. In kind it is cell-based, Staphylococcus epidermidis. Here is the method: as §1, §2
Setting [10] is: tetrasodium EDTA + chlorhexidine HCl.

In the case of `O=C([O-])CN(CCN(CC(=O)[O-])CC(=O)[O-])CC(=O)[O-].[Na+].[Na+].[Na+].[Na+]` [EDTA, tetrasodium EDTA], the MBC/MFC in assay [1] was found to be 2 % w/v. In addition, the “Concentration in combination giving FICI” value in [2] (setting [10]) stood at 0.063 % w/v; in [2] (tetrasodium EDTA + ethanol) it was 0.25 % w/v; in [3] (setting [10]) it was 0.063 % w/v; in assay [3] (tetrasodium EDTA + ethanol), 0.5 % w/v; in assay [4] (setting [10]), 0.5 % w/v; in assay [4] (tetrasodium EDTA + ethanol) it was 0.031 % w/v. Besides, the “Concentration in combination giving FICI” value in [5] (setting [10]) was 0.063 % w/v; in assay [5] (tetrasodium EDTA + ethanol), 0.5 % w/v; in [6] (setting [10]), 0.008 % w/v; in assay [6] (tetrasodium EDTA + ethanol) it was 0.015 % w/v; in assay [7] (setting [10]), 0.063 % w/v; in assay [7] (tetrasodium EDTA + ethanol) it was 0.015 % w/v. Also, the “Concentration in combination giving FICI” value turned out to be 0.015 % w/v in [8] (setting [10]) and 0.031 % w/v in assay [8] (tetrasodium EDTA + ethanol). The “Concentration in combination giving FMCI” value in assay [9] (setting [10]) was 0.008 % w/v; in assay [9] (tetrasodium EDTA + ethanol), 0.031 % w/v.

The values are drawn from patent US20230264009A1, “DISINFECTING CAP KIT FOR LUER ACCESS DEVICES” (SterileCare Inc., priority 2022, published 2023).
